Source: patent US7795207B2, “Lipopeptide compositions” (priority 2005, dated 2010)
≈ marks a conversion by molar mass, not a printed value.

Legend:
[1] = tested on: fresh venal human blood; settings: for Reduction of the hemolysis in %: lipopeptide 1,600 mg/l in presence of 2.5% SBE-β-CD
[2] = tested on: Streptococcus pneumoniae L3TV; assay: Intranasal lung infection model in the mouse; format: in vivo; settings: mice, total dose 20 mg/kg subcutaneously 1 and 4 hours after infection; SBE-β-CD:friulimicin B 2.5:1; Mann Whitney Test p=0.0159
Method: Herein, Ca2Cl2 friulimicin B serves as an example molecule for the antibiotics of the class of the lipopeptides and sulfobutylether-β-cyclodextrin (SBE-β-CD) as examples for modified β-cyclodextrins. Shown are the results of a study with an intranasal lung infection model in the mouse.
Female mice (CFW-1 (Harlan Winkelmann, Germany)) were infected intranasally with Streptococcus pneumoniae L3TV (1*10^6 CFU/mouse). 1 and 4 hours after the infection, the animals were subcutaneously administered a total dose of 20 mg Ca2Cl2 friulimicin B/kg with and without SBE-BCD (5%). 24-hours after the infection, a determination of the number of germs in the lung was performed by plating-out of a tissue disintegration on agar plates in a manner the person skilled in the art is familiar with.

[3] = tested on: Staphylococcus aureus ATCC 33592; assay: Minimum inhibitory concentration (agar dilution, CLSI); format: cell-based
Method: (§1) The effects of cyclodextrins on the antibiotic activity von Ca2Cl2 friulimicin B were investigated by in vitro experiments about the growth inhibition of Gram-positive bacteria. Herein, the minimum inhibitory concentration for the growth inhibition was determined by cultivation of the bacteria on nutritious agar (agar dilution) according to the CLSI (previously NCCLS) rules (National Committee for Clinical Laboratory Standards. 2003. Methods for dilution antimicrobial susceptibility tests for bacteria that grow aerobically; approved standard—6th ed. Document M7-A6. Clinical and Laboratory Standards Institute, Wayne, Pa., USA). Different molar mixture ratios of the lipopeptide Ca2Cl2 friulimicin B were tested with SBE-β-CD in Ca ions-adjusted Müller-Hinton medium. The Gram-positive strains tested for the cultivation methods were: • Staphylococcus carnosus ATCC 51365 {DSM 20501) • Staphylococcus aureus ATCC 29213 (DSM 2569) • Staphylococcus aureus ATCC 33592 (DSM 11729) • Staphylococcus epidermidis ATCC 12228 (DSM 1798)

[4] = tested on: Staphylococcus epidermidis ATCC 12228; assay: as above; format: cell-based
Method: as §1

[5] = tested on: Staphylococcus carnosus ATCC 51365; assay: as above; format: cell-based
Method: as §1

[6] = tested on: Staphylococcus aureus ATCC 29213; assay: as above; format: cell-based
Method: as §1

[7] = tested on: Female mice (CFW-1); assay: Acute toxicity in mice after one-time iv administration; format: in vivo
Method: Female mice (CFW-1 (Harlan Winkelmann, Germany)) were administered once (iv) the Ca2Cl2 friulimicin B solutions with and without SBE-β-CD. The mortality rate of the animals within 24 hours was determined.

[8] = tested on: canine blood; assay: Hemolysis test with venal canine blood; format: cell-based; settings: molar ratio SBE-β-CD:friulimicin B 2.5:1
Method: Ca2Cl2 friulimicin B was dissolved in 0.9% NaCl solution with and without addition of SBE-β-CD. In the batch with SBE-β-CD there was a molar ratio (SBE-β-CD:friulimicin B) of 2.5:1. […] Statements of the content of Ca2Cl2 friulimicin B (in mg/l) refer to the final concentrations of the free acid of the friulimicin B in the reaction batch. The statements of the molar ratio refer to the free acids of friulimicin B and SBE-β-CD, respectively.

[9] = tested on: E. faecalis ATCC 29212; assay: Minimum inhibitory concentration in presence of HSA; format: cell-based, Enterococcus faecalis
[10] = literature (Oleson et al. 2000); cited from earlier work
[11] = literature; cited from earlier work
[12] = molar ratio Friulimicin:SBE-β-CD 1:0
[13] = molar ratio Friulimicin:SBE-β-CD 1:2.5
[14] = molar ratio Friulimicin:SBE-β-CD 1:4

CCC(C)CCCCCC=CCC(=O)NC(CC(=O)O)C(=O)NC1C(=O)N2CCCCC2C(=O)NC(C(C)C(=O)O)C(=O)NC(CC(=O)O)C(=O)NCC(=O)NC(CC(=O)O)C(=O)NCC(=O)NC(C(C)N)C(=O)NC(C(C)C)C(=O)N2CCCC2C(=O)NC1C (stereo not drawn) [Amphomycin, reference compound]
Reduction of the hemolysis in % [1]: 99.6%

CCCCCCCCCCCCCCCCCC(=O)NC(CC(N)=O)C(=O)NC1C(=O)N2CCCCC2C(=O)NC(C(C)C(=O)O)C(=O)NC(CC(=O)O)C(=O)NCC(=O)NC(CC(=O)O)C(=O)NCC(=O)NC(C(C)N)C(=O)NC(C(C)C)C(=O)N2CCCC2C(=O)NC1C (stereo not drawn) [CBS000203]
Reduction of the hemolysis in % [1]: 41.3%

CCCCC/C=C\C/C=C\C/C=C\CCCCC(=O)NC(CC(N)=O)C(=O)NC1C(=O)N2CCCCC2C(=O)NC(C(C)C(=O)O)C(=O)NC(CC(=O)O)C(=O)NCC(=O)NC(CC(=O)O)C(=O)NCC(=O)NC(C(C)N)C(=O)NC(C(C)C)C(=O)N2CCCC2C(=O)NC1C (stereo not drawn) [CBS000204]
Reduction of the hemolysis in % [1]: 87.0%

CC(C)C1NC(=O)C(C(C)N)NC(=O)CNC(=O)C(CC(=O)O)NC(=O)CNC(=O)C(CC(=O)O)NC(=O)C(C(C)C(=O)O)NC(=O)C2CCCCN2C(=O)C(NC(=O)C(CC(N)=O)NC(=O)c2ccc(CCc3ccc(CCc4ccccc4)cc3)cc2)C(C)NC(=O)C2CCCN2C1=O (stereo not drawn) [CBS000217]
Reduction of the hemolysis in % [1]: 99.5%

CC(C)CCCCCCC/C=C\CC(=O)N[C@@H](CC(N)=O)C(=O)N[C@@H]1C(=O)N2CCCC[C@@H]2C(=O)N[C@@H]([C@H](C)C(=O)O)C(=O)N[C@@H](CC(=O)O)C(=O)NCC(=O)N[C@@H](CC(=O)O)C(=O)NCC(=O)N[C@H]([C@H](C)N)C(=O)N[C@@H](C(C)C)C(=O)N2CCC[C@H]2C(=O)N[C@@H]1C [Ca2Cl2 friulimicin B, friulimicin B]
Antibiotic effect (number of germs in the lung 24 hours after infection), with vs without SBE-β-CD [2]: increases the antibiotic effect
Antibiotic activity (MIC) [3, 12]: 1 µg/mL
Antibiotic activity (MIC) [3, 13]: 1 µg/mL
Antibiotic activity (MIC) [3, 14]: 1 µg/mL
Antibiotic activity (MIC) [4, 12]: 0.5 µg/mL
Antibiotic activity (MIC) [4, 13]: 0.5 µg/mL
Antibiotic activity (MIC) [4, 14]: 0.5 µg/mL
Antibiotic activity (MIC) [5, 12]: 0.5 µg/mL
Antibiotic activity (MIC) [5, 13]: 0.5 µg/mL
Antibiotic activity (MIC) [5, 14]: 0.5 µg/mL
Antibiotic activity (MIC) [6, 12]: 0.5 µg/mL
Antibiotic activity (MIC) [6, 13]: 0.5 µg/mL
Antibiotic activity (MIC) [6, 14]: 0.5 µg/mL
Effect of HP-β-CD on the induced hemolysis [1]: suppress
Mortality rate within 24 hours ([7]; 300 mg/kg iv once, with addition of SBE-β-CD (molar ratio 2.5:1)): 0% (0/3)
Mortality rate within 24 hours ([7]; 300 mg/kg iv once, without addition of SBE-β-CD): 0% (0/3)
Mortality rate within 24 hours ([7]; 350 mg/kg iv once, without addition of SBE-β-CD): 66% (2/3)
Mortality rate within 24 hours ([7]; 400 mg/kg iv once, with addition of SBE-β-CD (molar ratio 2.5:1)): 0% (0/3)
Mortality rate within 24 hours ([7]; 400 mg/kg iv once, without addition of SBE-β-CD): 100% (3/3)
Reduction of the hemolysis by the addition of SBE-β-CD ([8]; friulimicin B 800 mg/l): 55%
Reduction of the hemolysis by the addition of SBE-β-CD ([8]; friulimicin B 5,000 mg/l): 100%

CC(C)CCCCCCC/C=C\CC(=O)N[C@@H](CC(N)=O)C(=O)N[C@@H]1C(=O)N2CCCC[C@@H]2C(=O)N[C@@H]([C@H](C)C(=O)O)C(=O)N[C@@H](CC(=O)O)C(=O)NCC(=O)N[C@@H](CC(=O)O)C(=O)NCC(=O)N[C@H]([C@H](C)N)C(=O)N[C@@H](C(C)C)C(=O)N2CCC[C@H]2C(=O)N[C@@H]1C [Na2 friulimicin B, friulimicin B]
MIC value ([9]; medium addition 0% HSA): 4 µg/mL
MIC value ([9]; medium addition 4% HSA): >64 µg/mL
MIC value ([6]; medium addition 0% HSA): 2 µg/mL (≈ 1.53 µM)
MIC value ([6]; medium addition 4% HSA): 8 µg/mL (≈ 6.14 µM)

CCCCCCCCCC(=O)N[C@@H](Cc1c[nH]c2ccccc12)C(=O)N[C@H](CC(N)=O)C(=O)N[C@@H](CC(=O)O)C(=O)N[C@@H]1C(=O)NCC(=O)N[C@@H](CCCN)C(=O)N[C@@H](CC(=O)O)C(=O)N[C@H](C)C(=O)N[C@@H](CC(=O)O)C(=O)NCC(=O)N[C@H](CO)C(=O)N[C@@H]([C@H](C)CC(=O)O)C(=O)N[C@@H](CC(=O)c2ccccc2N)C(=O)O[C@@H]1C [daptomycin]
Toxicity on the skeletal muscle [10]: damages the skeletal muscle

iturin A
Hemolytic action [11]: act in a hemolytic manner

lichenysin
Hemolytic action [11]: act in a hemolytic manner

surfactin A
Hemolytic action [11]: act in a hemolytic manner
